pIC50: −log10 of the molar value.

Chain of H1047R PIK3CA enzyme (P42336 whole entry H1047R): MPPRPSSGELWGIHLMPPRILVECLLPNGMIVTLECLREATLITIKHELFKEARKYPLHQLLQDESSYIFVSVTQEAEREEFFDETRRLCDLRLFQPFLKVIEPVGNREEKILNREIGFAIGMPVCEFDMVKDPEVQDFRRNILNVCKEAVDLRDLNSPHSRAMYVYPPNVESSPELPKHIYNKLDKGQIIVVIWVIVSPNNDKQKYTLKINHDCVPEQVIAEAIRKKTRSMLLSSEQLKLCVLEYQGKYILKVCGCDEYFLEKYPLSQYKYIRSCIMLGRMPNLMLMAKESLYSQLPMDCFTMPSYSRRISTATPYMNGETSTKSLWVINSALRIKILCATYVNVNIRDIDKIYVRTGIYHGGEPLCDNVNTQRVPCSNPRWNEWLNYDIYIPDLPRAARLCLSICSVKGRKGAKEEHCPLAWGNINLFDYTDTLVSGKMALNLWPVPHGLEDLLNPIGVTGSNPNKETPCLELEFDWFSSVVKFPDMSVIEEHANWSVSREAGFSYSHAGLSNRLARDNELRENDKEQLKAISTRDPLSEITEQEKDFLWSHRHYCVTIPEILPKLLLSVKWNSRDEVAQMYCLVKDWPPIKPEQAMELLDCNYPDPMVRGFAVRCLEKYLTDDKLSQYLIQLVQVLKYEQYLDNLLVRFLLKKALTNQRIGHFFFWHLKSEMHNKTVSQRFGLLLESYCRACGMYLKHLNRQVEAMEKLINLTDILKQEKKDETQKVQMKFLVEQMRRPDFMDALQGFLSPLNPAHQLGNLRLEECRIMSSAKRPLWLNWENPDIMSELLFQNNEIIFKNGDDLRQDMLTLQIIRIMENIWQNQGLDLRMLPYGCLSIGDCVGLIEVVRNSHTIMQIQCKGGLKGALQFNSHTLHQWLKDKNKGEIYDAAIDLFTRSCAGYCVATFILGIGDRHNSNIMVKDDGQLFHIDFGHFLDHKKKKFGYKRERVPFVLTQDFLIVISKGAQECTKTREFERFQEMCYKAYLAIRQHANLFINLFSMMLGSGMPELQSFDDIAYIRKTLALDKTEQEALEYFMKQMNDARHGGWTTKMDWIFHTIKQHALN
Chain of H1047R PIK3CA enzyme (P27986 whole entry partner): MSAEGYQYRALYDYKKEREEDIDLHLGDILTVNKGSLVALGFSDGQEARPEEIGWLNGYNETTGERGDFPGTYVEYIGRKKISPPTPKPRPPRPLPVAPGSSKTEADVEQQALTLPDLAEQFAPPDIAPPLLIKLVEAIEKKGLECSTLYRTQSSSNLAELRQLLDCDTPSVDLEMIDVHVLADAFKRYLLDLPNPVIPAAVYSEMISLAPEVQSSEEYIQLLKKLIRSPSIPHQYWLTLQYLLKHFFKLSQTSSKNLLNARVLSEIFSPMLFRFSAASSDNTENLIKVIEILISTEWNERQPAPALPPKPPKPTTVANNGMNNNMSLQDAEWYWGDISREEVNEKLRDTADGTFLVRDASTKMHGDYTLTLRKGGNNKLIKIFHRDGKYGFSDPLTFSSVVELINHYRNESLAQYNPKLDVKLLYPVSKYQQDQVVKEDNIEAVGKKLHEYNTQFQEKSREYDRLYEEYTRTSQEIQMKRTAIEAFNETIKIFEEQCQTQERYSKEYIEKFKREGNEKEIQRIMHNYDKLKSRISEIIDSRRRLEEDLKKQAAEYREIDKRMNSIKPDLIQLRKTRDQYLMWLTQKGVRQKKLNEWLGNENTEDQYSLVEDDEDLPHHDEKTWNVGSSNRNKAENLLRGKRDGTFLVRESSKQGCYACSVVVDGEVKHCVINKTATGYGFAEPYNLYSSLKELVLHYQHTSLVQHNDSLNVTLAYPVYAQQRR

The assay deals with H1047R PIK3CA enzyme (Homo sapiens, UniProt P42336, H1047R). As to the kind of experiment: ADP-Glo Biochemical PIK3CA Kinase Assay. How it is done:
Compounds to be assayed were plated in 16 doses of 1:2 serial dilutions (20 nL volume each well) on a 1536-well plate, and the plate warmed to room temperature. […] To the well was added 1 μL of 200 μM ATP and 20 μM of diC8-PIP2 in Substrate Assay Buffer (50 mM HEPES pH7.4, 50 mM NaCl, 5 mM DTT and 0.03% CHAPS) to start the reaction, and the plate was shaken for 10 seconds, then spun briefly at 1500 rpm, and then incubated for 60 minutes at room temperature. The reaction was stopped by adding 2 μL of ADP-Glo reagent (Promega), and spinning briefly at 1500 rpm, and then incubating for 40 minutes. ADP-Glo Detection reagent (Promega) was added and the plate spun briefly at 1500 rpm, then incubated for 30 minutes.
`CC1(Nc2cc(NC(=O)c3cc(F)cc(C(F)(F)F)c3)c3c(c2)C(=O)N[C@@H]3c2cc(F)ccc2Cl)COC1` [Compound I-829]: the pIC50 – broadly, the negative decadic logarithm of the IC50, by convention in mol/L – is 6.00 to 6.30. Turning to `C[C@@H](c1cc(NC(=O)c2cc(F)cc(C(F)(F)F)c2)c2c(c1)C(=O)N[C@@H]2c1cc(F)ccc1Cl)S(C)(=O)=O` (single isomer, unassigned) [Compound I-1640], the negative logarithm of the IC50 (pIC50) is 5.00 to 6.00. The molecule `Cc1ccccc1-n1[nH]c(=O)c2cccc(NC(=O)c3nsc4ccc(F)cc34)c21` [Compound I-152] gave a pIC50 of 5.00 to 6.00. `C[C@@H]([C@@H]1C[C@H](O)CN1C(=O)Nc1cccc2c1[C@H](c1cc(F)ccc1Cl)NC2=O)C(F)(F)F` (single isomer, unassigned) [Compound I-2393] gave a pIC50 of 6.00 to 6.30.

The molecule `Cc1ccccc1C1NC(=O)c2cccc(NC(=O)c3ccsn3)c21` (stereo not drawn) [Compound I-451] gave a negative-log IC50 (pIC50) of 4.00 to 5.00. The value for `Nc1cc(NC(=O)c2cc(F)cc(C(F)(F)F)c2)c2c(c1)C(=O)N[C@@H]2c1cc(F)ccc1Cl` [Compound I-217] was 5.00 to 6.00.

The molecule `Cn1c(=O)[nH]c2ccc(-c3cc(NC(=O)c4cc(F)cc(C(F)(F)F)c4)c4c(c3)C(=O)NC4c3cc(F)ccc3Cl)cc21` (stereo not drawn) [Compound I-1044] gave a pIC50 of no less than 7.00. `O=C1NC(C2CCCCC2)c2c(NC(=O)c3nsc4ccccc34)cccc21` (stereo not drawn) [Compound I-204, N-(3-Cyclohexyl-1-oxoisoindolin-4-yl)benzo[d]isothiazole-3-carboxamide] showed a pIC50 of 6.30 to 7.00. `O=C(Nc1cc(-c2cnn(-c3cscn3)c2)cc2c1C(c1cc(F)ccc1Cl)NC2=O)c1cc(F)cc(C(F)(F)F)c1` (stereo not drawn) [Compound I-1571]: the pIC50 was no less than 7.00. The result for `CN1CCC(C(=O)Nc2cc(-c3ccc4ncnn4c3)cc3c2C(c2cc(F)ccc2Cl)NC3=O)CC1` (stereo not drawn) [Compound I-1758] reads 4.00 to 5.00; that for `O=C(Nc1cc(-c2ccc3nc(Cl)nn3c2)cc2c1C(c1cc(F)ccc1Cl)NC2=O)c1cc(F)cc(C(F)(F)F)c1` (stereo not drawn) [Compound I-1575], no less than 7.00.

In turn, `CC(O)c1cc(NC(=O)c2cc(F)cc(C(F)(F)F)c2)c2c(c1)C(=O)NC2c1cc(F)ccc1Cl` (racemic) [Compound I-664] showed a pIC50 of no less than 7.00. The value for `[2H]C1([2H])N(C(=O)Nc2cccc3c2[C@@H](c2cc(F)ccc2Cl)NC3=O)c2ccc(F)cc2[C@@]1(O)C(F)(F)F` (single isomer, unassigned) [Compound I-2594] was 5.00 to 6.00; that for `O=C1NC(c2cc(F)ccc2Cl)c2c(NC(=O)C3COCCN3)cc(-c3ccc4ncnn4c3)cc21` (mixture of isomers) [Compound I-1991] was 4.00 to 5.00; that for `O=C(Nc1ccc(C(F)(F)F)cc1)c1cccc2c1C(c1cc(F)ccc1Cl)NC2=O` (stereo not drawn) [Compound I-2316] was 4.00 to 5.00. The molecule `O=C(Nc1cc(-c2ccncc2)nc2c1C(c1cc(F)ccc1Cl)NC2=O)c1cc(F)cc(Cl)c1` (stereo not drawn) [Compound I-458] had a pIC50 of 6.30 to 7.00. The result for `O=C1NC(c2cc(F)ccc2Cl)c2c(NC(=O)[C@H]3C[C@@H](C(F)(F)F)C3)cc(Br)cc21` (stereo partly drawn) [Compound I-1989] reads 5.00 to 6.00.

For the molecule `O=C(Nc1cccc2c1C(c1cc(F)ccc1Cl)NC2=O)c1cc(C(F)(F)F)cc(Cl)n1` (stereo not drawn) [Compound I-724], the pIC50 is 5.00 to 6.00. As to `O=C(Nc1cc(C2CC23CC3)cc2c1C(c1cc(F)ccc1Cl)NC2=O)c1cc(F)cc(C(F)(F)F)c1` (stereo not drawn) [Compound I-1266], the pIC50 was no less than 7.00. The result for `O=C(Nc1cc(Br)cc2c1C(c1cc(F)ccc1Cl)NC2=O)c1ccc(C(F)F)cc1` (stereo not drawn) [Compound I-572] reads 5.00 to 6.00; that for `CN1CCC=C(c2cc(-c3ccc4ncnn4c3)cc3c2C(c2cc(F)ccc2Cl)NC3=O)C1` (stereo not drawn) [Compound I-2020], 4.00 to 5.00; that for `O=C1NC(c2cc(F)ccc2Cl)c2c(Nc3ccc4ccccc4c3)cc(Br)cc21` (stereo not drawn) [Compound I-1725], 5.00 to 6.00. The result for `O=C1N[C@H](c2cc(F)ccc2Cl)c2c(NC(=O)N3C[C@@](O)(C(F)(F)F)c4cc(F)ccc43)cc(C3COC3)cc21` (single isomer, unassigned) [Compound I-2654] reads 5.00 to 6.00; that for `O=C1NC(c2cc(F)ccc2Cl)c2c1cccc2-c1nc2c(F)cc(C(F)(F)F)cc2[nH]1` (stereo not drawn) [Compound I-1944], no less than 7.00; that for `O=C(Nc1cc(Br)cc2c1[C@H](c1cc(F)ccc1Cl)NC2=O)N[C@]1(CC(F)(F)F)CCCOC1` (racemic) [Compound I-1949], 4.00 to 5.00. `O=C1NC(c2cc(F)ccc2Cl)c2c(NC3CCCNC3)cc(-c3ccc4ncnn4c3)cc21` (stereo not drawn) [Compound I-2158, 6-([1,2,4]triazolo[1,5-a]pyridin-6-yl)-3-(2-chloro-5-fluorophenyl)-4-(piperidin-3-ylamino)isoindolin-1-one] gave a pIC50 of 4.00 to 5.00. `O=C1NC(c2cc(F)ccc2Cl)c2c(NC(=O)n3nc(O)c4ccccc43)cccc21` (stereo not drawn) [Compound I-2315] gave a pIC50 of 5.00 to 6.00. The value for `Cc1ccccc1C1NC(=O)c2cccc(NC(=O)c3cnn4ccc(Cl)cc34)c21` (stereo not drawn) [Compound I-48] was 5.00 to 6.00.

Take `O=C(Nc1cc(Br)cc2c1C(c1cc(F)ccc1Cl)NC2=O)c1cc(F)cc(OC(F)F)c1` (stereo not drawn) [Compound I-833]: the pIC50 is 6.30 to 7.00. The result for `O=C(O)Cc1ccccc1-c1cc(NC(=O)c2cc(F)cc(C(F)(F)F)c2)c2c(c1)C(=O)NC2c1cc(F)ccc1Cl` (stereo not drawn) [Compound I-1265] reads 6.30 to 7.00; that for `N#Cc1c(-c2cc(NC(=O)c3cc(F)cc(Cl)c3)c3c(c2)C(=O)N[C@H]3c2cc(F)ccc2Cl)ccc2ncnn12` [Compound I-2063], 6.00 to 6.30.

The molecule `COC(C)(C)Cc1cc(NC(=O)c2cc(F)cc(C(F)(F)F)c2)c2c(c1)C(=O)NC2c1cc(F)ccc1Cl` (stereo not drawn) [Compound I-820] showed a pIC50 of no less than 7.00. The result for `COc1ccccc1C1NC(=O)c2cccc(NC(=O)c3csc4ccccc34)c21` (stereo not drawn) [Compound I-18] reads 5.00 to 6.00; that for `O=C(Nc1cccc2c1C(CC1CCCCC1)NC2=O)c1cc(F)cc(C(F)(F)F)c1` (stereo not drawn) [Compound I-1732], 5.00 to 6.00; that for `COc1ccc2c(c1)N(C(=O)Nc1cccc3c1C(c1cc(F)ccc1Cl)NC3=O)CC2` (stereo not drawn) [Compound I-2439], 5.00 to 6.00. The value for `O=C(Nc1cc(NC2=NC[C@H](C(F)(F)F)O2)cc2c1[C@H](c1cc(F)ccc1Cl)NC2=O)c1cc(F)cc(C(F)(F)F)c1` (single isomer, unassigned) [Compound I-2323] was 6.30 to 7.00; that for `O=C(Nc1cc(C2CCOCC2)cc2c1C(c1cc(F)ccc1Cl)NC2=O)c1cc(F)cc(C(F)(F)F)c1` (stereo not drawn) [Compound I-1187] was no less than 7.00. The value for `O=C(Nc1cc(-c2ccn3ncnc3c2)cc2c1C(c1cc(F)ccc1Cl)NC2=O)c1cc(F)cc(C(F)(F)F)c1` (stereo not drawn) [Compound I-1371] was no less than 7.00.

As to `N#Cc1c(-c2cc(NC(=O)c3cc(F)cc(C(F)(F)F)c3)c3c(c2)C(=O)N[C@@H]3c2cc(F)ccc2Cl)cnn1C(F)F` [Compound I-1920], the pIC50 is 5.00 to 6.00.

Regarding `N#CCc1cc(NC(=O)c2cc(F)cc(C(F)(F)F)c2)c2c(c1)C(=O)N[C@@H]2c1cc(F)ccc1Cl` [Compound I-1087], the pIC50 is 6.30 to 7.00. The result for `O=C1N[C@@H](c2cc(F)ccc2Cl)c2c(NC(=O)N3C[C@](O)(CO)c4ccccc43)cccc21` [Compound I-2166] reads 5.00 to 6.00; that for `O=C(Nc1cc(-c2ccc3ncccc3c2)cc2c1[C@@H](c1cc(F)ccc1Cl)NC2=O)c1cc(F)cc(C(F)(F)F)c1` [Compound I-893], 5.00 to 6.00; that for `O=C(Nc1cccc2c1C([C@@H]1CCCC[C@H]1O)NC2=O)c1cc(F)cc(C(F)(F)F)c1` (single isomer, unassigned) [Compound I-1971], 4.00 to 5.00. For `O=C1NC(c2cc(F)ccc2Cl)c2c(NC(=O)N3CCc4c(Cl)cccc43)cccc21` (stereo not drawn) [Compound I-2442], the negative logarithm of the IC50 (pIC50) was 5.00 to 6.00. The value for `N#Cc1cnc2ncc(-c3cc(NC(=O)c4cc(F)cc(C(F)(F)F)c4)c4c(c3)C(=O)NC4c3cc(F)ccc3Cl)cn12` (stereo not drawn) [Compound I-1796] was no less than 7.00; that for `CN1CCN(c2cc(NC(=O)c3cc(F)cc(C(F)(F)F)c3)c3c(c2)C(=O)NC3c2cc(F)ccc2Cl)CC1=O` (stereo not drawn) [Compound I-1249] was no less than 7.00; that for `O=C(Nc1cc(NC2CC(F)(F)C2)nc2c1C(c1cc(F)ccc1Cl)NC2=O)c1cc(F)cc(C(F)(F)F)c1` (stereo not drawn) [Compound I-284] was no less than 7.00. The value for `O=C(Nc1cc(-c2ccc3ncnn3c2)nc2c1C(C1CCCCC1)NC2=O)c1cc(F)cc(C(F)(F)F)c1` (stereo not drawn) [Compound I-1607] was 6.00 to 6.30.

As to `CC(C)c1cc(N)n(C(=O)Nc2cccc3c2C(c2cc(F)ccc2Cl)NC3=O)n1` (stereo not drawn) [Compound I-2465], the pIC50 is 4.00 to 5.00. `CS(=O)(Cc1cc(NC(=O)c2cc(F)cc(C(F)(F)F)c2)c2c(c1)C(=O)NC2c1cc(F)ccc1Cl)=NC#N` (stereo not drawn) [Compound I-1312]: the pIC50 is no less than 7.00.

In turn, `Cc1ccccc1C1NC(=O)c2c(N)ncc(NC(=O)c3cc(F)cc(C(F)(F)F)c3)c21` (stereo not drawn) [Compound I-262, N-(4-Amino-3-oxo-1-(o-tolyl)-2,3-dihydro-1H-pyrrolo[3,4-c]pyridin-7-yl)-3-fluoro-5-(trifluoromethyl)benzamide] had a pIC50 of 6.30 to 7.00.

Consider `O=C1NC(c2ccc(F)cc2Cl)c2c(NC(=O)c3csc4ccccc34)cccc21` (stereo not drawn) [Compound I-102], for which the pIC50 is no less than 7.00. The value for `O=C(Nc1cc(-c2ccc3ncnn3c2)cc2c1[C@H](c1cc(F)ccc1Cl)NC2=O)c1cc(Cl)cc(Cl)c1` (stereo in doubt) [Compound I-1208] was no less than 7.00. In the case of `CN1CC(COc2cc(NC(=O)c3cc(F)cc(C(F)(F)F)c3)c3c(c2)C(=O)NC3c2cc(F)ccc2Cl)CC1=O` (mixture of isomers) [Compound I-1348], the negative-log IC50 (pIC50) is no less than 7.00.

(Values after patent US12581252B2, “Substituted pyrrolo[3,4-b]pyridines as PI3K-α inhibitors” (Relay Therapeutics, Inc., priority 2020, dated 2026).)
